Holding throughout (format): biochemical
Experiment [1] addresses LYN (Homo sapiens (Human), UniProt P07948). As to the kind of experiment: LYN kinase assay (HTRF). The conditions noted are these: [ATP]=20 μM, LYN=0.12 nM. For orientation: Time-resolved FRET reads energy transfer from a long-lived donor to a nearby acceptor.
Experiment [2] concerns the target BTK (Homo sapiens (Human), UniProt Q06187). In words: Btk kinase assay (HTRF). Conditions: [ATP]=80 μM, BTK=3.4 nM. Put shortly: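 HTRF kinase read-out (665/615 nm ratio, excitation 330 nm) after EDTA quench and 1 h detection incubation. Reaction: 3.4 nM BTK, ATP 80 μM, peptide substrate 1 μM, compound, HEPES pH 7.0 buffer, 1 h; IC50 derived using uninhibited and enzyme-free controls.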

Experiment [3] addresses LCK (Homo sapiens (Human), UniProt P06239). As to the kind of experiment: LCK kinase assay (HTRF). Conditions: [ATP]=20 μM, LCK=0.2 nM.

Where two headings read alike, the source gives them in different places.

Sequence of BTK (Q06187 whole entry, species assumed): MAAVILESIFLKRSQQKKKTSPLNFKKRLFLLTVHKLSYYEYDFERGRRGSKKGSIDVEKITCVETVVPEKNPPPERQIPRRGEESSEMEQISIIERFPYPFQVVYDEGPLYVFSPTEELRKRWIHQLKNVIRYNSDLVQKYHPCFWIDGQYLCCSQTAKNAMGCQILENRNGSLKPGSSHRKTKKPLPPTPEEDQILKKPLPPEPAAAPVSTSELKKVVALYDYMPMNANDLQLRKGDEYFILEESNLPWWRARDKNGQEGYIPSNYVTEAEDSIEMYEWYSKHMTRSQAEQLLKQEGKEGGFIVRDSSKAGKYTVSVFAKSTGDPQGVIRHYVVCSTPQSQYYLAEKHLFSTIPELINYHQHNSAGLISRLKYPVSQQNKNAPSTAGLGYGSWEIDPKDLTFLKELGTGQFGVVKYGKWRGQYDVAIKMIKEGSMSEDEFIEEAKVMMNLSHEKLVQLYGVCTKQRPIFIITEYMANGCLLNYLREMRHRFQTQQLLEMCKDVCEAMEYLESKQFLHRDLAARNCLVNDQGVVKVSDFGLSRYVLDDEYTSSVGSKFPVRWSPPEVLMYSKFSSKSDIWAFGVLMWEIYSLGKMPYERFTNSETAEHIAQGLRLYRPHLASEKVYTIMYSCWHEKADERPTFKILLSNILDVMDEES
Sequence of LYN (P07948 whole entry, species assumed): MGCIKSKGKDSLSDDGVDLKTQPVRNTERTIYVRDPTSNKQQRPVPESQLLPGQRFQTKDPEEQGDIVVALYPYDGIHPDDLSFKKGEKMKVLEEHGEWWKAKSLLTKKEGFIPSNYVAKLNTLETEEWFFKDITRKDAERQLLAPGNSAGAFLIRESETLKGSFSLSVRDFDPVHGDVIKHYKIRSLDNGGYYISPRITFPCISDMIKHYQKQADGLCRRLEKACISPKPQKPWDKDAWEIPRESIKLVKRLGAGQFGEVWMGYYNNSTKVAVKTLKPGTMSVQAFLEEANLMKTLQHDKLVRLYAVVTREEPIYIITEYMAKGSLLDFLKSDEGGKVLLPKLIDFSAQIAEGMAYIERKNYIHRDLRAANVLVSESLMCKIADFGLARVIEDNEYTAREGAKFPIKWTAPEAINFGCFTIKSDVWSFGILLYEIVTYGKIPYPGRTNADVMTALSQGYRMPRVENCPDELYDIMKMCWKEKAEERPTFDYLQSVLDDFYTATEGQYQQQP
Sequence of LCK (P06239 whole entry, species assumed): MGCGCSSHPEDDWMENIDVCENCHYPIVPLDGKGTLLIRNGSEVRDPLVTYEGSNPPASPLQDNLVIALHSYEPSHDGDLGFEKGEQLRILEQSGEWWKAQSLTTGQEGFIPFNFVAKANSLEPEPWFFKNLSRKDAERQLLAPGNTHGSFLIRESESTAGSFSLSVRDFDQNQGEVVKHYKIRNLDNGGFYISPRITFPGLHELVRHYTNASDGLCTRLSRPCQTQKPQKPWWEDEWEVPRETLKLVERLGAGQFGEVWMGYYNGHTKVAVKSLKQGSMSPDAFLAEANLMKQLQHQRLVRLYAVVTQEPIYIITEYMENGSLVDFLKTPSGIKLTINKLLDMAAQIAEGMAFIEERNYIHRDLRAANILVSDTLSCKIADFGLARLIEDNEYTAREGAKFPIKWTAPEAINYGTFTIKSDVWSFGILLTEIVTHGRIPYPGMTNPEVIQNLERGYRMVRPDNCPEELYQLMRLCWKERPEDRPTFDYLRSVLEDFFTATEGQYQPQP

For `C=CC(=O)N1CC[C@@H](n2c(=O)n(-c3ccc(Oc4cccc(C)c4F)cc3)c3cnccc32)C1` [Example 138, (R)-1-(1-acryloylpyrrolidin-3-yl)-3-(4-(2-fluoro-3-methylphenoxy)phenyl)-1H-imidazo[4,5-c]pyridin-2(3H)-one], the IC50 in experiment [1] is at least 10000 nM; in experiment [2] (Table 2, read-out: BTK IC50), 10 to 100 nM; in experiment [2] (read-out: BTK Inhibition), 10 to 100 nM; in experiment [3], at least 10000 nM.

As for `C=CC(=O)N1CC[C@@H](n2c(=O)n(-c3ccc(Sc4ccccc4)cc3)c3cnccc32)C1` [Example 31, (R)-1-(1-acryloylpyrrolidin-3-yl)-3-(4-(phenylthio)phenyl)-1H-imidazo[4,5-c]pyridin-2(3H)-one], the IC50 in experiment [1] is 1000 to 10000 nM; in experiment [2] (Table 2, read-out: BTK IC50) it was at most 10 nM; in experiment [2] (read-out: BTK Inhibition), at most 10 nM; in experiment [3] it was at least 10000 nM.

As for `C=CC(=O)N1CC[C@@H](n2c(=O)n(-c3ccc(Oc4cccnc4)cc3)c3cnccc32)C1` [Example 68, (R)-1-(1-acryloylpyrrolidin-3-yl)-3-(4-(pyridin-3-yloxy)phenyl)-1H-imidazo[4,5-c]pyridin-2(3H)-one], in experiment [2] (read-out: BTK Inhibition), the IC50 lay in the range of 100 to 1000 nM.

For the molecule `C=CC(=O)N1CC[C@@H](n2c(=O)n(-c3cccc(Oc4ccc(OC)cc4)c3)c3cnccc32)C1` [Example 17, (R)-1-(1-acryloylpyrrolidin-3-yl)-3-(3-(4-methoxyphenoxy)phenyl)-1H-imidazo[4,5-c]pyridin-2(3H)-one], the IC50 in experiment [2] (read-out: BTK Inhibition) lay in the range of 100 to 1000 nM.

With `C=CC(=O)Nc1cccc(-n2c(=O)n(-c3ccc(Oc4ccc(Cl)c(Cl)c4)cc3)c3cnccc32)c1` [Example 159, N-(3-(3-(4-(3,4-dichlorophenoxy)phenyl)-2-oxo-2,3-dihydro-1H-imidazo[4,5-c]pyridin-1-yl)phenyl)acrylamide], in experiment [2] (read-out: BTK Inhibition), the IC50 was in the range of 10 to 100 nM.

As to `C=C(C)C(=O)N1CC[C@@H](n2c(=O)n(-c3ccc(Oc4ccccc4)cc3)c3cnccc32)C1` [Example 28, (R)-1-(1-methacryloylpyrrolidin-3-yl)-3-(4-phenoxyphenyl)-1H-imidazo[4,5-c]pyridin-2(3H)-one], the IC50 in experiment [2] (read-out: BTK Inhibition) was in the range of 1000 to 10000 nM.

On to `C=CC(=O)N1CC[C@@H](n2c(=O)n(-c3ccc(Oc4cc(F)cc(F)c4)c(Cl)c3)c3cnccc32)C1` [Example 39, (R)-1-(1-acryloylpyrrolidin-3-yl)-3-(3-chloro-4-(3,5-difluorophenoxy)phenyl)-1H-imidazo[4,5-c]pyridin-2(3H)-one], for which the IC50 in experiment [2] (read-out: BTK Inhibition) was 10 to 100 nM.

Regarding `C=CC(=O)N1CC[C@@H](n2c(=O)n(-c3ccc(Oc4cccc(C)c4)c(Cl)c3)c3cnccc32)C1` [Example 19, (R)-1-(1-acryloylpyrrolidin-3-yl)-3-(3-chloro-4-(m-tolyloxy)phenyl)-1H-imidazo[4,5-c]pyridin-2(3H)-one], the IC50 in experiment [2] (read-out: BTK Inhibition) is 10 to 100 nM.

For `C=CC(=O)Nc1cccc(-n2c(=O)n(-c3cccc(-c4ccc(C)cc4)c3)c3cnccc32)c1` [Example 272, N-(3-(3-(4′-methyl-[1,1′-biphenyl]-3-yl)-2-oxo-2,3-dihydro-1H-imidazo [4,5-c]pyridin-1-yl)phenyl)acrylamide], the IC50 in experiment [2] (read-out: BTK Inhibition) was 100 to 1000 nM.

Consider `C=CC(=O)Nc1cccc(-n2c(=O)n(-c3ccc(OCc4ccccc4C)cc3)c3cnccc32)c1` [Example 225, N-(3-(3-(4-((2-methylbenzyl)oxy)phenyl)-2-oxo-2,3-dihydro-1H-imidazo[4,5-c]pyridin-1-yl)phenyl)acrylamide], for which the IC50 in experiment [2] (read-out: BTK Inhibition) was in the range of 100 to 1000 nM.

Turning to `C=CC(=O)Nc1cccc(-n2c(=O)n(-c3ccc(Oc4cc(Cl)cc(OC)c4)cc3)c3cnccc32)c1` [Example 71, N-(3-(3-(4-(3-chloro-5-methoxyphenoxy)phenyl)-2-oxo-2,3-dihydro-1H-imidazo[4,5-c]pyridin-1-yl)phenyl)acrylamide], the IC50 in experiment [2] (read-out: BTK Inhibition) fell in the range of 100 to 1000 nM.

Take `C=CC(=O)Nc1cccc(-n2c(=O)n(-c3ccc(OCc4ccc(F)c(F)c4)cc3)c3cnccc32)c1` [Example 241, N-(3-(3-(4-((3,4-difluorobenzyl)oxy)phenyl)-2-oxo-2,3-dihydro-1H-imidazo[4,5-c]pyridin-1-yl)phenyl)acrylamide]: in experiment [2] (read-out: BTK Inhibition), the IC50 was in the range of 100 to 1000 nM.

Consider `C=CC(=O)N1CC[C@@H](n2c(=O)n(-c3ccc(OCc4ccccc4F)c(Cl)c3)c3cnccc32)C1` [Example 236, (R)-1-(1-acryloylpyrrolidin-3-yl)-3-(3-chloro-4-((2-fluorobenzyl)oxy)phenyl)-1,3-dihydro-2H-imidazo[4,5-c]pyridin-2-one], for which the IC50 in experiment [2] (read-out: BTK Inhibition) lay within 100 to 1000 nM.

With `C=CC(=O)N1CCC[C@@H](n2c(=O)n(-c3ccc(Oc4cccc(C)c4)c(Cl)c3)c3cnccc32)C1` [Example 108, (R)-1-(1-acryloylpiperidin-3-yl)-3-(3-chloro-4-(m-tolyloxy)phenyl)-1H-imidazo[4,5-c]pyridin-2(3H)-one], the IC50 in experiment [2] (read-out: BTK Inhibition) fell in the range of 10 to 100 nM.

For `C=CC(=O)N1CC[C@@H](n2c(=O)n(-c3ccc(Oc4ccccc4)cc3)c3c(O)nccc32)C1` [Example 183, (R)-1-(1-acryloylpyrrolidin-3-yl)-4-hydroxy-3-(4-phenoxyphenyl)-1H-imidazo[4,5-c]pyridin-2(3H)-one], the IC50 in experiment [2] (read-out: BTK Inhibition) is at least 10000 nM.

Consider `C=CC(=O)Nc1cccc(-n2c(=O)n(-c3ccc(NC(=O)c4cccc(Cl)c4)cc3)c3cnccc32)c1` [Example 259, N-(4-(1-(3-acrylamidophenyl)-2-oxo-1H-imidazo[4,5-c]pyridin-3(2H)-yl)phenyl)-3-chlorobenzamide], for which the IC50 in experiment [2] (read-out: BTK Inhibition) was 100 to 1000 nM.

Turning to `C=CC(=O)N1CC[C@@H](n2c(=O)n(-c3ccc(OCc4cc(F)ccc4F)c(Cl)c3)c3cnccc32)C1` [Example 206, (R)-1-(1-acryloylpyrrolidin-3-yl)-3-(3-chloro-4-((2,5-difluorobenzyl)oxy)phenyl)-1H-imidazo[4,5-c]pyridin-2(3H)-one], the IC50 in experiment [2] (read-out: BTK Inhibition) is 100 to 1000 nM.

As for `C=CC(=O)N1CC[C@@H](n2c(=O)n(-c3ccc(OCc4ccccc4F)cc3)c3cnccc32)C1` [Example 216, (R)-1-(1-acryloylpyrrolidin-3-yl)-3-(4-((2-fluorobenzyl)oxy)phenyl)-1H-imidazo[4,5-c]pyridin-2(3H)-one], the IC50 in experiment [2] (read-out: BTK Inhibition) is 100 to 1000 nM.

Take `C=CC(=O)Nc1cccc(-n2c(=O)n(-c3ccc(C(=O)Nc4ccccc4)cc3)c3cnccc32)c1` [Example 254, 4-(1-(3-acrylamidophenyl)-2-oxo-1H-imidazo[4,5-c]pyridin-3(2H)-yl)-N-phenylbenzamide]: in experiment [2] (read-out: BTK Inhibition), the IC50 was in the range of 1000 to 10000 nM.

With `C=CC(=O)Nc1cccc(-n2c(=O)n(-c3ccc(-c4cccc(C)c4)cc3)c3cnccc32)c1` [Example 270, N-(3-(3-(3′-methyl-[1,1′-biphenyl]-4-yl)-2-oxo-2,3-dihydro-1H-imidazo[4,5-c]pyridin-1-yl)phenyl)acrylamide], the IC50 in experiment [2] (read-out: BTK Inhibition) is at least 10000 nM.

Take `CN(C(=O)/C=C/CN(C)C1CC1)c1cccc(-n2c(=O)n(-c3ccc(Oc4ccccc4)cc3)c3c(N)ncnc32)c1` [Example 174, (E)-N-(3-(6-amino-8-oxo-7-(4-phenoxyphenyl)-7H-purin-9(8H)-yl)phenyl)-4-(cyclopropyl(methyl)amino)-N-methylbut-2-enamide]: in experiment [2] (read-out: BTK Inhibition), the IC50 fell in the range of 10 to 100 nM.

In the case of `O=C(/C=C/c1ccccc1)N1CC[C@@H](n2c(=O)n(-c3ccc(Oc4ccccc4)cc3)c3cnccc32)C1` [Example 29, (R,E)-1-(1-cinnamoylpyrrolidin-3-yl)-3-(4-phenoxyphenyl)-1H-imidazo[4,5-c]pyridin-2(3H)-one], the IC50 in experiment [2] (read-out: BTK Inhibition) is at least 10000 nM.

For the molecule `C=CC(=O)N1CC[C@@H](n2c(=O)n(-c3ccc(Oc4ccccc4)cc3)c3cncc(C)c32)C1` [Example 176, (R)-1-(1-acryloylpyrrolidin-3-yl)-7-methyl-3-(4-phenoxyphenyl)-1H-imidazo[4,5-c]pyridin-2(3H)-one], in experiment [2] (read-out: BTK Inhibition), the IC50 was at most 10 nM.

Regarding `C=CC(=O)Nc1cccc(-n2c(=O)n(-c3ccc(Oc4ccc(OC)c(F)c4)cc3)c3cnccc32)c1` [Example 161, N-(3-(3-(4-(3-fluoro-4-methoxyphenoxy)phenyl)-2-oxo-2,3-dihydro-1H-imidazo[4,5-c]pyridin-1-yl)phenyl)acrylamide], the IC50 in experiment [2] (read-out: BTK Inhibition) fell in the range of 100 to 1000 nM.

For the molecule `C=CC(=O)Nc1cccc(-n2c(=O)n(-c3ccc(OCc4ccccn4)cc3)c3cnccc32)c1` [Example 196, N-(3-(2-oxo-3-(4-(pyridin-2-ylmethoxy)phenyl)-2,3-dihydro-1H-imidazo[4,5-c]pyridin-1-yl)phenyl)acrylamide], the IC50 in experiment [2] (read-out: BTK Inhibition) fell in the range of 100 to 1000 nM.

For the molecule `C=CC(=O)Nc1cccc(-n2c(=O)n(-c3ccc(Oc4ccccc4)c(Cl)c3)c3cnccc32)c1` [Example 73, N-(3-(3-(3-chloro-4-phenoxyphenyl)-2-oxo-2,3-dihydro-1H-imidazo[4,5-c]pyridin-1-yl)phenyl)acrylamide], the IC50 in experiment [2] (read-out: BTK Inhibition) was 10 to 100 nM.

As for `C=CC(=O)Nc1cccc(-n2c(=O)n(-c3ccc(Oc4cccc(Cl)c4)cc3)c3cnccc32)c1` [Example 69, N-(3-(3-(4-(3-chlorophenoxy)phenyl)-2-oxo-2,3-dihydro-1H-imidazo[4,5-c]pyridin-1-yl)phenyl)acrylamide], in experiment [2] (read-out: BTK Inhibition), the IC50 lay in the range of 10 to 100 nM.

As for `C=CC(=O)N1CC[C@@H](n2c(=O)n(-c3ccc(Oc4ccccc4)cc3)c3c([N+](=O)[O-])cccc32)C1` [Example 189, (R)-1-(1-acryloylpyrrolidin-3-yl)-4-nitro-3-(4-phenoxyphenyl)-1H-benzo[d]imidazol-2(3H)-one], the IC50 in experiment [2] (read-out: BTK Inhibition) is at least 10000 nM.

In the case of `C=CC(=O)N1CC[C@@H](n2c(=O)n(-c3ccc(Oc4cccc(OC)c4F)cc3)c3cnccc32)C1` [Example 191, (R)-1-(1-acryloylpyrrolidin-3-yl)-3-(4-(2-fluoro-3-methoxyphenoxy)phenyl)-1H-imidazo[4,5-c]pyridin-2(3H)-one], the IC50 in experiment [2] (read-out: BTK Inhibition) was at most 10 nM.

As for `C=CC(=O)N1CC[C@@H](n2c(=O)n(-c3ccc(OCc4ccccc4C(F)(F)F)c(Cl)c3)c3cnccc32)C1` [Example 203, (R)-1-(1-acryloylpyrrolidin-3-yl)-3-(3-chloro-4-((2-(trifluoromethyl)benzyl)oxy)phenyl)-1H-imidazo[4,5-c]pyridin-2(3H)-one], the IC50 in experiment [2] (read-out: BTK Inhibition) was in the range of 100 to 1000 nM.

These data come from patent US10358446B2, “Bruton's tyrosine kinase inhibitors” (Zibo Biopolar Changsheng Pharmaceutical Co. Ltd., priority 2015, dated 2019).
